According to patent US4647586A, “Pharmaceutical oil-in-water type micro-emulsion” (priority 1984, dated 1987):
Where two headings read alike, the source gives them in different places.

Tests used:
[1] = test system: Adjuvant-induced polyarthritis; test: Adjuvant-induced polyarthritis in rats, adjuvant-injected paw [Test 2]; assay type: in vivo, SD-strain female rats; settings: for ED20: Rattus norvegicus, iv, read-out: ED20 (dose required to cause a 20% inhibition of adjuvant-injected paw volume)
Procedure: (a) Experimental animals: SD-strain famale rats 140-180g).
(§1) (b) Test drugs: The same as in A-1 [Test 2].
Rats were anesthetized with ether inhalation, and 0.6 mg of Mycobacterium butyricum suspended in 0.1 ml of white paraffin oil was immediately injected intradermally into the planter surface of the left hind paw of each rat via a 27 gauge needle fitted to a 0.5 ml syringe (day 0). On the 14th day after the adjuvant injection, arthritis-established rats selected by development of secondary lesions were used. Volumes of both hind paws in arthritis-established rats were measured by a plethysmometer (UGO BASILE), and the rats were randomized on the basis of the edema volume in the adjuvant-injected paw. Once daily, beginning on the 14th day up to the 18th day, drugs and vehicles were administered intravenously. Measurements of both paw volumes were performed every day from the 15th day up to the 18th day, and on the 21st day and the 24th day. The inhibition percent were calculated in accordance with the calculation formula as in [Test 1] of A-1.

[2] = test system: Carrageenin-induced paw edema; test: Carrageenin-induced paw edema in rats [Test 2]; assay type: in vivo, SD-strain male rats; settings: for ED30: Rattus norvegicus, iv, read-out: ED30 (dose required to cause a 30% inhibition of edema volume)
Procedure: (a) Experimental animals: SD-strain male rats (120-180 g).
A micro-emulsion containing ethyl 4-biphenylylacetate prepared as in Examples 11, 12, 13 and 14 given hereinafter was administered at a dose of 5 ml per kg of the animals. Venolipid® (Morishita Pharmaceutical Co., Ltd.) was used as a vehicle control. As control drugs, a solution or suspension of ethyl 4-biphenylylacetate in physiological saline containing 0.5% Cremophor EL® (Sigma Chemical Company, a solubilizing agent), 0.2% of polyethylene glycol 400 and 10% of dimethyl sulfoxide, a physiological saline solution of sodium 4-biphenylylacetate and a physiological saline solution of Aspirin DL-lysine [Venopirin®, Green Cross Co.] were used. As the vehicle control of the control drugs, the above solvents were used.
A 1% carrageenin solution in physiological saline was injected subcutaneously in an amount of 0.05 ml into the planter surface of the left hind paw of each rat via a 25 gauge needle fitted to a 0.25 ml syringe. One hour after carrageenin injection, the rats were randomized on the basis of the edema volume, and intravenous administration of the drugs and vehicles followed immediately. The volume of the left hind paw was measured by a plethysmometer (Ugo Basile) prior to the injection of the carrageenin solution and at 2, 3, 4, 5 and 6 hours after the carrageenin injection. As the volume of edema, an increase in the paw volume was taken.
The inhibition percents were calculated in accordance with the same calculation formula as in Test 1.

[3] = test system: brewer's yeast-induced fever; test: Effects on body temperature in pyretic rats (antipyretic activity); assay type: in vivo, SD-strain male rats; settings: iv, read-out: ED50 (dose reducing body temperature by at least 1.5° C. in 50% of the rats)
Procedure: (a) Experimental animals SD-strain male rats (120-185 g).
as §1
Male Sprague-Dawley rats, weighing 120-185 g, were injected subcutaneously in the nape of the neck with 2 ml of a 20% suspension of dried brewers yeast in physiological saline. Drugs and vehicles were administered intravenously 17 hours after treatment of yeast suspension. Rectal temperature was recorded with a thermistor type thermometer (Natsume Seisakusho, BMA-77 Type) just prior to drug administration and at 1/2, 1, 2 and 4 hours after drug administration.

[4] = rat, in vivo
Procedure: (a) Experimental animals: Wistar-strain male rats (body weight 60-220 g), 6 per group.
The rats were periodically killed, and the major organs were extracted. The concentration of the drug in the tissues were measured by the conventional HPLC method.

[5] = test system: synthesis of prostaglandin; settings: E. L. Tolman, American Cyanamid Company's report; cited from earlier work
[6] = in vivo, po; cited from earlier work
[7] = test system: abnormal 3-legged gait (brewers yeast-inflamed paw); test: Reversal of abnormal 3-legged gait in rats (analgesic activity); assay type: in vivo, SD-strain male rats; settings: Rattus norvegicus, iv, read-out: ED50 (dose causing at least 50% reversal of gait score in 50% of the rats)
Procedure: (a) Experimental animals: SD-strain male rats (120-165 g).
as §1
A 40% suspension of dried brewers yeast in physiological saline was injected (0.25 ml/rat) subcutaneously into the planter surface of the left hind paw of each rat. Three hours later, the walking gait on a wire mesh platform was assessed for each rat.
0 = Normal gait in the presence of a severely
0.5 = As above, with intermittent mild limping.
1.0 = Constant limping, but continuous use of
1.5 = Limping with occasional 3-legged gait
2.0 = Continous 3-Legged gait and/or only the
Any rat not showing a gait score of 2 was eliminated from this test. Drugs and vehicles were then administered intravenously. Measurements of the gait were made at 1, 2, 3 and 4 hours after drug administration.

CCOC(=O)Cc1ccc(-c2ccccc2)cc1 [Ethyl 4-biphenylylacetate]
Inhibition (%) ([1]; 1.25 mg/kg/day i.v. as 4-biphenylylacetic acid, day 15): -8.0%
Inhibition (%) ([1]; 1.25 mg/kg/day i.v. as 4-biphenylylacetic acid, day 16): -5.1%
Inhibition (%) ([1]; 1.25 mg/kg/day i.v. as 4-biphenylylacetic acid, day 17): -3.3%
Inhibition (%) ([1]; 1.25 mg/kg/day i.v. as 4-biphenylylacetic acid, day 18): -4.6%
Inhibition (%) ([1]; 1.25 mg/kg/day i.v. as 4-biphenylylacetic acid, day 21): -19.2%
Inhibition (%) ([1]; 1.25 mg/kg/day i.v. as 4-biphenylylacetic acid, day 24): -23.2%
Inhibition (%) ([1]; 2.5 mg/kg/day i.v. as 4-biphenylylacetic acid, day 15): -3.7%
Inhibition (%) ([1]; 2.5 mg/kg/day i.v. as 4-biphenylylacetic acid, day 16): 0%
Inhibition (%) ([1]; 2.5 mg/kg/day i.v. as 4-biphenylylacetic acid, day 17): 6.7%
Inhibition (%) ([1]; 2.5 mg/kg/day i.v. as 4-biphenylylacetic acid, day 18): 5.8%
Inhibition (%) ([1]; 2.5 mg/kg/day i.v. as 4-biphenylylacetic acid, day 21): -6.5%
Inhibition (%) ([1]; 2.5 mg/kg/day i.v. as 4-biphenylylacetic acid, day 24): -17.5%
Inhibition (%) ([1]; 5.0 mg/kg/day i.v. as 4-biphenylylacetic acid, day 15): 5.6%
Inhibition (%) ([1]; 5.0 mg/kg/day i.v. as 4-biphenylylacetic acid, day 16): 7.2%
Inhibition (%) ([1]; 5.0 mg/kg/day i.v. as 4-biphenylylacetic acid, day 17): 15.5%
Inhibition (%) ([1]; 5.0 mg/kg/day i.v. as 4-biphenylylacetic acid, day 18): 15.0%
Inhibition (%) ([1]; 5.0 mg/kg/day i.v. as 4-biphenylylacetic acid, day 21): 8.9%
Inhibition (%) ([1]; 5.0 mg/kg/day i.v. as 4-biphenylylacetic acid, day 24): 1.3%
Inhibition (%) ([1]; 10.0 mg/kg/day i.v. as 4-biphenylylacetic acid, day 15): 2.8%
Inhibition (%) ([1]; 10.0 mg/kg/day i.v. as 4-biphenylylacetic acid, day 16): 10.7%
Inhibition (%) ([1]; 10.0 mg/kg/day i.v. as 4-biphenylylacetic acid, day 17): 15.2%
Inhibition (%) ([1]; 10.0 mg/kg/day i.v. as 4-biphenylylacetic acid, day 18): 15.6%
Inhibition (%) ([1]; 10.0 mg/kg/day i.v. as 4-biphenylylacetic acid, day 21): 3.0%
Inhibition (%) ([1]; 10.0 mg/kg/day i.v. as 4-biphenylylacetic acid, day 24): -9.8%
ED20 [1]: 14.5 mg/kg
Inhibition (%) ([2]; 1.25 mg/kg i.v. as 4-biphenylylacetic acid, 2 h after carrageenin): 14.0%
Inhibition (%) ([2]; 1.25 mg/kg i.v. as 4-biphenylylacetic acid, 3 h after carrageenin): 17.5%
Inhibition (%) ([2]; 1.25 mg/kg i.v. as 4-biphenylylacetic acid, 4 h after carrageenin): 9.6%
Inhibition (%) ([2]; 1.25 mg/kg i.v. as 4-biphenylylacetic acid, 5 h after carrageenin): 9.8%
Inhibition (%) ([2]; 1.25 mg/kg i.v. as 4-biphenylylacetic acid, 6 h after carrageenin): 6.4%
Inhibition (%) ([2]; 2.5 mg/kg i.v. as 4-biphenylylacetic acid, 2 h after carrageenin): 19.3%
Inhibition (%) ([2]; 2.5 mg/kg i.v. as 4-biphenylylacetic acid, 3 h after carrageenin): 26.3%
Inhibition (%) ([2]; 2.5 mg/kg i.v. as 4-biphenylylacetic acid, 4 h after carrageenin): 17.3%
Inhibition (%) ([2]; 2.5 mg/kg i.v. as 4-biphenylylacetic acid, 5 h after carrageenin): 17.6%
Inhibition (%) ([2]; 2.5 mg/kg i.v. as 4-biphenylylacetic acid, 6 h after carrageenin): 12.8%
Inhibition (%) ([2]; 5.0 mg/kg i.v. as 4-biphenylylacetic acid, 2 h after carrageenin): 17.5%
Inhibition (%) ([2]; 5.0 mg/kg i.v. as 4-biphenylylacetic acid, 3 h after carrageenin): 28.1%
Inhibition (%) ([2]; 5.0 mg/kg i.v. as 4-biphenylylacetic acid, 4 h after carrageenin): 23.1%
Inhibition (%) ([2]; 5.0 mg/kg i.v. as 4-biphenylylacetic acid, 5 h after carrageenin): 23.5%
Inhibition (%) ([2]; 5.0 mg/kg i.v. as 4-biphenylylacetic acid, 6 h after carrageenin): 19.1%
Inhibition (%) ([2]; 10.0 mg/kg i.v. as 4-biphenylylacetic acid, 2 h after carrageenin): 22.8%
Inhibition (%) ([2]; 10.0 mg/kg i.v. as 4-biphenylylacetic acid, 3 h after carrageenin): 22.8%
Inhibition (%) ([2]; 10.0 mg/kg i.v. as 4-biphenylylacetic acid, 4 h after carrageenin): 26.9%
Inhibition (%) ([2]; 10.0 mg/kg i.v. as 4-biphenylylacetic acid, 5 h after carrageenin): 25.5%
Inhibition (%) ([2]; 10.0 mg/kg i.v. as 4-biphenylylacetic acid, 6 h after carrageenin): 27.7%
ED30 [2]: 15.8 mg/kg
ED50 ([3]; 17 hours after yeast, against vehicle control): 3.1 mg/kg
Transferability to the tissues [4]: showed the same transferability to the tissues

O=C(O)Cc1ccc(-c2ccccc2)cc1 [4-biphenylylacetic acid, 4-Biphenylylacetic acid]
IC50, inhibition of synthesis of prostaglandin [5]: 0.68 ng/mL

O=C(O)CCC(=O)c1ccc(-c2ccccc2)cc1 [Fenbufen, 4-(4-biphenyl)-4-oxobutyric acid]
Side effects on the digestive organs [6]: considerably reduced as compared with conventional non-steroidal anti-inflammatory agents

CC(=O)Oc1ccccc1C(=O)O (racemic) [Aspirin-DL.Lysine]
Inhibition (%) ([1]; 50 mg/kg/day i.v. as aspirin, day 15): -2.7%
Inhibition (%) ([1]; 50 mg/kg/day i.v. as aspirin, day 16): -5.2%
Inhibition (%) ([1]; 50 mg/kg/day i.v. as aspirin, day 17): -3.8%
Inhibition (%) ([1]; 50 mg/kg/day i.v. as aspirin, day 18): -2.6%
Inhibition (%) ([1]; 50 mg/kg/day i.v. as aspirin, day 21): -12.4%
Inhibition (%) ([1]; 50 mg/kg/day i.v. as aspirin, day 24): -20.0%
Inhibition (%) ([1]; 100 mg/kg/day i.v. as aspirin, day 15): 4.0%
Inhibition (%) ([1]; 100 mg/kg/day i.v. as aspirin, day 16): 9.2%
Inhibition (%) ([1]; 100 mg/kg/day i.v. as aspirin, day 17): 13.2%
Inhibition (%) ([1]; 100 mg/kg/day i.v. as aspirin, day 18): 6.8%
Inhibition (%) ([1]; 100 mg/kg/day i.v. as aspirin, day 21): 4.2%
Inhibition (%) ([1]; 100 mg/kg/day i.v. as aspirin, day 24): -2.8%
Inhibition (%) ([1]; 200 mg/kg/day i.v. as aspirin, day 15): 6.7%
Inhibition (%) ([1]; 200 mg/kg/day i.v. as aspirin, day 16): 11.3%
Inhibition (%) ([1]; 200 mg/kg/day i.v. as aspirin, day 17): 16.4%
Inhibition (%) ([1]; 200 mg/kg/day i.v. as aspirin, day 18): 15.3%
Inhibition (%) ([1]; 200 mg/kg/day i.v. as aspirin, day 21): 7.2%
Inhibition (%) ([1]; 200 mg/kg/day i.v. as aspirin, day 24): 6.2%
ED20 [1]: 320 mg/kg
ED50 [7]: 93.2 mg/kg
Inhibition (%) ([2]; 50 mg/kg i.v. as aspirin, 2 h after carrageenin): 24.2%
Inhibition (%) ([2]; 50 mg/kg i.v. as aspirin, 3 h after carrageenin): 26.7%
Inhibition (%) ([2]; 50 mg/kg i.v. as aspirin, 4 h after carrageenin): 35.7%
Inhibition (%) ([2]; 50 mg/kg i.v. as aspirin, 5 h after carrageenin): 29.6%
Inhibition (%) ([2]; 50 mg/kg i.v. as aspirin, 6 h after carrageenin): 30.0%
Inhibition (%) ([2]; 100 mg/kg i.v. as aspirin, 2 h after carrageenin): 24.2%
Inhibition (%) ([2]; 100 mg/kg i.v. as aspirin, 3 h after carrageenin): 26.7%
Inhibition (%) ([2]; 100 mg/kg i.v. as aspirin, 4 h after carrageenin): 26.8%
Inhibition (%) ([2]; 100 mg/kg i.v. as aspirin, 5 h after carrageenin): 22.2%
Inhibition (%) ([2]; 100 mg/kg i.v. as aspirin, 6 h after carrageenin): 20.0%
Inhibition (%) ([2]; 200 mg/kg i.v. as aspirin, 2 h after carrageenin): 37.9%
Inhibition (%) ([2]; 200 mg/kg i.v. as aspirin, 3 h after carrageenin): 43.3%
Inhibition (%) ([2]; 200 mg/kg i.v. as aspirin, 4 h after carrageenin): 50.0%
Inhibition (%) ([2]; 200 mg/kg i.v. as aspirin, 5 h after carrageenin): 42.6%
Inhibition (%) ([2]; 200 mg/kg i.v. as aspirin, 6 h after carrageenin): 44.0%
ED30 [2]: 81.6 mg/kg
ED50 ([3]; 17 h): 76.3 mg/kg
